# Reference: patent US20090275594A1, “3-HYDRAZONE PIPERAZINYL RIFAMYCIN DERIVATIVES USEFUL AS ANTIMICROBIAL AGENTS” (priority 2008, published 2009)
# Columns and labels:
# Assay type in all cases: cell-based
# Conditions in all cases: cation adjusted Mueller-Hinton broth, 35° C., 16-20 hours
# [1] = system: Enterococcus faecium OC 3312 vancomycin-resistant; assay: In vitro antibacterial activity, microdilution broth MIC (NCCLS M7-A4), strain A
# Experimental: (§1) Minimum inhibitory concentration (MIC) is an indicator of in vitro antibacterial activity. […] The in vitro antimicrobial activity of representative compounds of the present invention was determined by the microdilution broth method following the test method from the National Committee for Clinical Laboratory Standards (NCCLS). This method is described in the NCCLS Document M7-A4, Vol. 17, No. 2, “Methods for Dilution Antimicrobial Susceptibility Test for Bacteria that Grow Aerobically—Fourth Edition”, which is incorporated herein by reference.
# (§2) In this method two-fold serial dilutions of drug in cation adjusted Mueller-Hinton broth were added to wells in microdilution trays. The test organisms were prepared by adjusting the turbidity of actively growing broth cultures so that the final concentration of test organism after it is added to the wells was approximately 5×10^4 CFU/well. Following inoculation of the microdilution trays, the trays were incubated at 35° C. for 16-20 hours and then read. The amount of growth in the wells containing the test compound was compared with the amount of growth in the growth-control wells (no test compound) used in each tray.
# [2] = system: Staphylococcus aureus ATCC 29213; assay: In vitro antibacterial activity, microdilution broth MIC (NCCLS M7-A4), strain B
# Experimental: as §1, §2
# [3] = system: Methicillin-resistant Staphylococcus aureus OC 3726 COL; assay: In vitro antibacterial activity, microdilution broth MIC (NCCLS M7-A4), strain C
# Experimental: as §1, §2
# [4] = system: Staphylococcus aureus OC4172; assay: In vitro antibacterial activity, microdilution broth MIC (NCCLS M7-A4), strain D
# Experimental: as §1, §2
Structure (SMILES),MIC (μg/mL) A Strain [1] [µg/mL],MIC (μg/mL) B Strain [2],MIC (μg/mL) C Strain [3],MIC (μg/mL) D Strain [4]
COC1C=COC2(C)Oc3c(C)c(O)c4c(O)c(c(C=NN5CCN(Cc6ccc(-c7ccccc7)s6)CC5)c(O)c4c3C2=O)NC(=O)C(C)=CC=CC(C)C(O)C(C)C(O)C(C)C(OC(C)=O)C1C (stereo not drawn) [Compound 20],2,2 µg/mL,1 µg/mL,2 µg/mL
COC1C=COC2(C)Oc3c(C)c(O)c4c(O)c(c(C=NN5CCN(Cc6cc(-c7ccc(F)c(F)c7)no6)CC5)c(O)c4c3C2=O)NC(=O)C(C)=CC=CC(C)C(O)C(C)C(O)C(C)C(OC(C)=O)C1C (stereo not drawn) [Compound 6],0.5,0.5 µg/mL,0.25 µg/mL,0.25 µg/mL
COC1C=COC2(C)Oc3c(C)c(O)c4c(O)c(c(C=NN5CCN(Cc6ccc(-c7ccc(Cl)cc7)o6)CC5)c(O)c4c3C2=O)NC(=O)C(C)=CC=CC(C)C(O)C(C)C(O)C(C)C(OC(C)=O)C1C (stereo not drawn) [Compound 23],0.5,0.25 µg/mL,0.25 µg/mL,0.25 µg/mL
COC1C=COC2(C)Oc3c(C)c(O)c4c(O)c(c(C=NN5CCN(Cc6ccc(-c7ccccc7Cl)o6)CC5)c(O)c4c3C2=O)NC(=O)C(C)=CC=CC(C)C(O)C(C)C(O)C(C)C(OC(C)=O)C1C (stereo not drawn) [Compound 22],0.5,0.5 µg/mL,0.5 µg/mL,0.25 µg/mL
COC1C=COC2(C)Oc3c(C)c(O)c4c(O)c(c(C=NN5CCN(Cc6cc(-c7ccncc7)no6)CC5)c(O)c4c3C2=O)NC(=O)C(C)=CC=CC(C)C(O)C(C)C(O)C(C)C(OC(C)=O)C1C (stereo not drawn) [Compound 15],0.06,≦0.03 μg/mL,≦0.03 μg/mL,≦0.03 μg/mL
COC1C=COC2(C)Oc3c(C)c(O)c4c(O)c(c(C=NN5CCN(Cc6cc(CN(C)C)no6)CC5)c(O)c4c3C2=O)NC(=O)C(C)=CC=CC(C)C(O)C(C)C(O)C(C)C(OC(C)=O)C1C (stereo not drawn) [Compound 12],0.12,0.06 µg/mL,≦0.03 μg/mL,≦0.03 μg/mL
COC1C=COC2(C)Oc3c(C)c(O)c4c(O)c(c(C=NN5CCN(Cc6ccc(-c7ccc(Cl)cc7)s6)CC5)c(O)c4c3C2=O)NC(=O)C(C)=CC=CC(C)C(O)C(C)C(O)C(C)C(OC(C)=O)C1C (stereo not drawn) [Compound 21],2,2 µg/mL,2 µg/mL,2 µg/mL
COC1C=COC2(C)Oc3c(C)c(O)c4c(O)c(c(C=NN5CCN(Cc6cc(-c7ccc(NC(C)=O)cc7)no6)CC5)c(O)c4c3C2=O)NC(=O)C(C)=CC=CC(C)C(O)C(C)C(O)C(C)C(OC(C)=O)C1C (stereo not drawn) [Compound 16],0.12,0.06 µg/mL,0.06 µg/mL,≦0.03 μg/mL
COC1C=COC2(C)Oc3c(C)c(O)c4c(O)c(c(C=NN5CCN(Cc6cc(-c7cccc(Cl)c7)no6)CC5)c(O)c4c3C2=O)NC(=O)C(C)=CC=CC(C)C(O)C(C)C(O)C(C)C(OC(C)=O)C1C (stereo not drawn) [Compound 3],0.5,0.5 µg/mL,0.5 µg/mL,0.5 µg/mL
COC1C=COC2(C)Oc3c(C)c(O)c4c(O)c(c(C=NN5CCN(Cc6cc(C)no6)CC5)c(O)c4c3C2=O)NC(=O)C(C)=CC=CC(C)C(O)C(C)C(O)C(C)C(OC(C)=O)C1C (stereo not drawn) [Compound 10],0.06,≦0.03 μg/mL,≦0.03 μg/mL,≦0.03 μg/mL
COC1C=COC2(C)Oc3c(C)c(O)c4c(O)c(c(C=NN5CCN(Cc6cc(-c7ccc(Cl)cc7)no6)CC5)c(O)c4c3C2=O)NC(=O)C(C)=CC=CC(C)C(O)C(C)C(O)C(C)C(OC(C)=O)C1C (stereo not drawn) [Compound 2],1,0.5 µg/mL,0.5 µg/mL,0.5 µg/mL
COC1C=COC2(C)Oc3c(C)c(O)c4c(O)c(c(C=NN5CCN(Cc6cc(-c7ccccn7)no6)CC5)c(O)c4c3C2=O)NC(=O)C(C)=CC=CC(C)C(O)C(C)C(O)C(C)C(OC(C)=O)C1C (stereo not drawn) [Compound 13],0.06,≦0.03 μg/mL,≦0.03 μg/mL,≦0.03 μg/mL
COC1C=COC2(C)Oc3c(C)c(O)c4c(O)c(c(C=NN5CCN(CCCc6cc(-c7ccccc7)no6)CC5)c(O)c4c3C2=O)NC(=O)C(C)=CC=CC(C)C(O)C(C)C(O)C(C)C(OC(C)=O)C1C (stereo not drawn) [Compound 27],0.5,0.5 µg/mL,0.5 µg/mL,0.5 µg/mL
COC1C=COC2(C)Oc3c(C)c(O)c4c(O)c(c(C=NN5CCN(Cc6cc(-c7ccc(C)cc7)no6)CC5)c(O)c4c3C2=O)NC(=O)C(C)=CC=CC(C)C(O)C(C)C(O)C(C)C(OC(C)=O)C1C (stereo not drawn) [Compound 8],0.5,0.5 µg/mL,0.5 µg/mL,0.5 µg/mL
COC1C=COC2(C)Oc3c(C)c(O)c4c(O)c(c(C=NN5CCN(Cc6onc(-c7ccc(Cl)cc7)c6C(=O)O)CC5)c(O)c4c3C2=O)NC(=O)C(C)=CC=CC(C)C(O)C(C)C(O)C(C)C(OC(C)=O)C1C (stereo not drawn) [Compound 19],4,1 µg/mL,0.5 µg/mL,0.5 µg/mL
COC1C=COC2(C)Oc3c(C)c(O)c4c(O)c(c(C=NN5CCN(CCc6cc(-c7ccc(Cl)cc7)no6)CC5)c(O)c4c3C2=O)NC(=O)C(C)=CC=CC(C)C(O)C(C)C(O)C(C)C(OC(C)=O)C1C (stereo not drawn) [Compound 26],0.5,0.5 µg/mL,0.25 µg/mL,0.25 µg/mL
COC1C=COC2(C)Oc3c(C)c(O)c4c(O)c(c(C=NN5CCN(Cc6cc(CO)no6)CC5)c(O)c4c3C2=O)NC(=O)C(C)=CC=CC(C)C(O)C(C)C(O)C(C)C(OC(C)=O)C1C (stereo not drawn) [Compound 11],0.25,0.06 µg/mL,≦0.03 μg/mL,≦0.03 μg/mL
COc1ccc(-c2cc(CN3CCN(N=Cc4c5c(O)c6c(O)c(C)c7c(c6c4O)C(=O)C(C)(OC=CC(OC)C(C)C(OC(C)=O)C(C)C(O)C(C)C(O)C(C)C=CC=C(C)C(=O)N5)O7)CC3)on2)cc1 (stereo not drawn) [Compound 9],0.25,0.25 µg/mL,0.12 µg/mL,0.12 µg/mL
